The target of assay [1] is T1, NOX2 C-terminal (gp91phox) (Homo sapiens, UniProt P04839).
T1 construct: gene CYBB; C-terminal (cytosolic part), residues 300–580, His-tagged, E. coli
T1 sequence (P04839 300-570): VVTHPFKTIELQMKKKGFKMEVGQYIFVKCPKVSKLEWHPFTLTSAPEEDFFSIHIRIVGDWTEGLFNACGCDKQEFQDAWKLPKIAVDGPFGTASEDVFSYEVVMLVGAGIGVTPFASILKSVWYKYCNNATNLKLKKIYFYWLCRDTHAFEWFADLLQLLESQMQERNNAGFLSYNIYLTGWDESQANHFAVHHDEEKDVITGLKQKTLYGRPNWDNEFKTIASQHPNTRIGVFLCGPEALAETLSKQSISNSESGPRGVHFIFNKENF
As to the kind of experiment: fluorescence enhancement titration of the ligand with recombinant protein; also decreased NADPH consumption. Type of assay: binding.

Assay [2] addresses T2, eNOS (Bos taurus, UniProt P29473).
T2 construct: gene NOS3; full length recombinant bovine eNOS, E. coli BL21 (DE3); with calmodulin
T2 sequence (P29473 2-1205): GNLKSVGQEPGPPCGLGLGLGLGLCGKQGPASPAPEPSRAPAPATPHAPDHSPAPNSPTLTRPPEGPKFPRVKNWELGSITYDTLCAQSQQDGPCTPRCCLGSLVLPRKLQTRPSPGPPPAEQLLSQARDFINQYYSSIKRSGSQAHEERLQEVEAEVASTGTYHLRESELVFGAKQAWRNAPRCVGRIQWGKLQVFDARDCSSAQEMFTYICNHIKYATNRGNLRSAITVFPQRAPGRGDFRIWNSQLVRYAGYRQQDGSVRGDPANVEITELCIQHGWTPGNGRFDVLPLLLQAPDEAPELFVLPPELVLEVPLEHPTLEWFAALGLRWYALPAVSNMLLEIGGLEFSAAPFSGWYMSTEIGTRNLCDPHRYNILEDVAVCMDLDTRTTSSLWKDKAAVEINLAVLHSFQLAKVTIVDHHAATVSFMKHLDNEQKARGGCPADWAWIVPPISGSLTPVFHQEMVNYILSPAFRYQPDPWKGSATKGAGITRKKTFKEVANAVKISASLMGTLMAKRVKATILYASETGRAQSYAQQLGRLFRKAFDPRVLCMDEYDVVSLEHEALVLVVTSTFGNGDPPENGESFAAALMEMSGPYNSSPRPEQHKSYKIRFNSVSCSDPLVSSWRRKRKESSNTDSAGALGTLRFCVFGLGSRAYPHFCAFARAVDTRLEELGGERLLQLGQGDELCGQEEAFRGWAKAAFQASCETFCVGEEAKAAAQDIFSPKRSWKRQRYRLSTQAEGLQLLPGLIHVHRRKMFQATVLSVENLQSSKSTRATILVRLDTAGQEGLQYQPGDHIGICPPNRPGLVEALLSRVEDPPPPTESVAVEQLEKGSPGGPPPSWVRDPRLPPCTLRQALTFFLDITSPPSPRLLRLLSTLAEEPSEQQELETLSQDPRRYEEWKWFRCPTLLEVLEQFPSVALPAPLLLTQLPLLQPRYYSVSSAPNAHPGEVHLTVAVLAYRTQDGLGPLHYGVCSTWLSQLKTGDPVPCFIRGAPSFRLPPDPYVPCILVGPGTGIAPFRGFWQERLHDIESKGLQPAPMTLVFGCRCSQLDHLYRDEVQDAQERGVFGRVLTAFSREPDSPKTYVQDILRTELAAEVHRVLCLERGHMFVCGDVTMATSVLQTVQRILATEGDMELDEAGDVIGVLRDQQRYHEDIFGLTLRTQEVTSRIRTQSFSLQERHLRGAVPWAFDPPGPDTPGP
Description: oxyhemoglobin assay for NO formation. The format is biochemical.

The target in assay [3] is T1, NOX2 C-terminal (gp91phox). As to the kind of experiment: fluorescence enhancement titration of the ligand with recombinant protein. Type of assay: binding.

On to `CCN(CCNC(=O)[C@H]1O[C@@H](n2cnc3c(N)ncnc32)[C@H](OP(=O)(O)O)[C@@H]1O)c1ccc(/C=C/c2ccc([N+](=O)[O-])cc2)cc1` [NS1-2], for which, in assay [1], the Kd (in general, a measure of binding affinity in units of concentration) was 0.67 ± 0.11 µM. Besides, in assay [2], the IC50 (as a rule, the midpoint of a concentration-inhibition curve) is roughly 30 µM.

Turning to `CCN(CCNC(=O)[C@H]1O[C@@H](n2cnc3c(N)ncnc32)[C@H](O)[C@@H]1OP(=O)(O)O)c1ccc(/C=C/c2ccc([N+](=O)[O-])cc2)cc1` [NS1-3], the Kd in assay [3] was 1.14 ± 0.09 µM.

(Values after paper PMC8148004, “Distinction between 2′- and 3′-Phosphate Isomers of a Fluorescent NADPH Analogue Led to Strong Inhibition of Cancer Cells Migration” (Antioxidants, 2021).)
